# Results published in PubChem BioAssay AID720512 (Broad Institute, 2013).
# Calls of active or inactive are those of the source. No rule for the calls is given here.
# Target: Toxin B (TcdB) glycohydrolase, Clostridioides difficile 630
# Assay: TcdB glycohydrolase inhibitors, dose response, biochemical, cherry-pick, plate reader (AID 720512)
# Settings: recombinant TcdB glycohydrolase activity
row,SMILES,AC50
1,COc1ccc(C(=O)/C=C/c2ccc(O)cc2)c2c1CC(O)C(C)(C)O2 (centres undefined),> 39 µM (inactive)
2,CC(C)NC(=O)N1CC[C@@H]2[C@H]1c1cc(-c3ccccc3)ccc1N(C)[C@H]2CO,> 39 µM (inactive)
3,CCOc1ccccc1/C=C/c1onc(C)c1S(=O)(=O)N1CCC(C(=O)NC)CC1,> 39 µM (inactive)
4,O=C(O)c1ccc(-c2ccc(O)c(F)c2)cc1,> 39 µM (inactive)
5,O=C(O)COn1c(-c2ccc(Cl)cc2)nc2ccc(Cl)cc21,> 39 µM (inactive)
6,COCC(=O)N1CC[C@H]2[C@@H]1c1cc(-c3ccc(OC)cc3)ccc1N(C)[C@H]2CO,> 39 µM (inactive)
7,CCc1cc(-c2n[nH]c(C)c2-c2nc(C)cs2)c(O)cc1OC,> 39 µM (inactive)

# Same assay, conditions: recombinant TcdB glycohydrolase activity, at 19.5 µM (top of the series)
row,SMILES,"activity change, negative = inhibition"
1,O=C(N/N=C/c1ccccn1)c1ccc([N+](=O)[O-])cc1Cl,inactive
2,C[C@@H]1CN([C@@H](C)CO)S(=O)(=O)c2ccc(-c3ccncc3)cc2O[C@@H]1CN(C)Cc1ccc(Oc2ccccc2)cc1,inactive
3,CC(C)c1cc(CN2CCN(Cc3ccc(F)c(F)c3)C(CCO)C2)[nH]n1 (centres undefined),inactive
4,Cn1ncc(Cl)c1C(=O)N/N=C/c1cccc(OC2CSC2)c1,inactive
5,O=C1COc2ccc(C(=O)COC(=O)CNS(=O)(=O)c3cccc(F)c3)cc2N1,inactive
6,COc1ccc(C2=NS(=O)(=O)N(C)C(C(=O)N(C)Cc3ccccc3)=C2)cc1,inactive
7,CN(C)CCNc1ccc(CO)c2sc3ccc(O)cc3c(=O)c12,inactive
8,Cc1nc2ccccc2nc1OCC(=O)Nc1ccc(F)cc1,inactive
9,CNC(=O)C1CCN(S(=O)(=O)c2c(C)noc2/C=C/c2ccccc2F)CC1,inactive
10,COc1cc(/C=C/C(=O)OCC(=O)c2ccc[nH]2)ccc1O,inactive
11,CN1CC(=O)N/C1=N\C(=O)Nc1ccc(O)cc1,inactive
12,CN(C(=O)COC(=O)CNC(=O)c1ccccc1Cl)c1ccccc1,inactive
13,Oc1cc(O)cc(/C=C/c2ccc(O)c(O)c2)c1,inactive
14,CCOC(=O)[C@@H]1[C@H]2COc3ccc(Br)cc3[C@@H]2N2C(=O)N(c3cccc(F)c3)C(=O)[C@]12C,inactive
15,CCOC(=O)c1ccc(NC(=O)Oc2cc(C)c(Cl)cc2C(C)C)cc1,inactive
16,NC(=O)c1ccc2c(=O)c(O)c(-c3cc(Cl)c(N)c(Cl)c3)[nH]c2c1,inactive
17,C[C@H]1CN([C@@H](C)CO)S(=O)(=O)c2ccc(-c3ccncc3)cc2O[C@@H]1CN(C)Cc1ccc(Oc2ccccc2)cc1,inactive
18,Cc1c(Cl)cccc1NC(=O)C1Cc2ccccc2CN1C(=O)c1ccccc1 (centres undefined),inactive
19,Cc1ccc(C(=O)NC(=S)NNC(=O)CC#N)cc1,inactive
20,COCC(=O)N1CC[C@@H]2[C@H]1c1cc(-c3ccccc3)ccc1N(C)[C@H]2CO,inactive
21,COC(=O)c1ccc(NC(=S)Nc2ccc(O)cc2)cc1,inactive
22,CC(OC(=O)[C@@H](NC(=O)OCc1ccccc1)C(C)C)C(=O)Nc1ccc(N2CCOCC2)cc1 (some centres undefined),inactive
23,COc1ccc2nccc(/C=C/c3ccnc4ccc(OC)cc34)c2c1,inactive
24,Nn1c(SCc2ccccc2F)nnc1-c1ccccn1,inactive

row,SMILES,"activity change, negative = inhibition"
1,O=c1c2ccccc2oc2ccc(NCCCN3CCOCC3)cc12,inactive
2,COc1ccccc1/C=N/NC(=O)CC(=O)NCc1ccccc1,inactive
3,CN1C(=O)NC(c2ccc(O)cc2)C2=C1CN(c1ccc(O)cc1)C2=O (centres undefined),inactive
4,COc1cc(/C=N/NC2=NCCCCC2)ccc1O,inactive
5,CC1C(=O)NN=C1c1ccc([N+](=O)[O-])cc1 (centres undefined),inactive
6,COc1cc(/C=N/Nc2ccccn2)ccc1O,inactive
7,COc1ccc(CNCCc2ccc3c(c2)OCO3)cc1Br,inactive
8,CN(c1ccc(O)cc1)c1nc(-c2cccnc2)cs1,inactive
9,O=C(NNc1ccc(-c2csnn2)cc1)c1cc(Cl)cc(Cl)c1,inactive
10,CCN(CC)CCNC(=O)C1CCN(S(=O)(=O)c2c(C)noc2/C=C/c2ccccc2F)CC1,inactive
11,COc1ccccc1/C=C/c1onc(C)c1S(=O)(=O)N1CCC(C(=O)NC2CCCCCC2)CC1,inactive
12,O=C(NCCc1cccc(Cl)c1)c1ccc(Cl)c([N+](=O)[O-])c1,inactive
13,Cc1cc(N2CCCC2=O)cc(C)c1S(=O)(=O)Nc1c(C)nn(C)c1C,inactive
14,CCCNC(=O)Nc1ccc2c(c1)C(=O)N(C)[C@@H]1CC[C@H](CC(=O)NC3CCC3)O[C@H]1CO2,inactive
15,COc1cc(/C=C(\C#N)C(=O)N2CCCCC2)ccc1O,inactive
16,Cc1nc2[nH]c(=S)[nH]c2c(=O)[nH]1,inactive
17,CCSc1nnc(NC(=O)C2CC2c2ccccc2)s1 (centres undefined),inactive
18,COc1ccc(CC(=O)NNC(=S)NC(=O)c2cccnc2)cc1,inactive
19,O=C(CC(=O)N/N=C/c1ccc(O)cc1)N/N=C/c1ccc(O)cc1,inactive
20,COc1ccc(C(=O)NC(CC(=O)O)c2cc([N+](=O)[O-])ccc2Cl)c(SC)c1 (centres undefined),inactive
21,C[C@H](CO)N1C[C@H](C)[C@@H](CN(C)C(=O)Nc2ccc(C(F)(F)F)cc2)Oc2c(NS(=O)(=O)c3cn(C)cn3)cccc2C1=O,inactive
22,COc1ccc(NC(=O)Cn2cnc3sc(C)c(S(=O)(=O)N4CCOCC4)c3c2=O)c(OC)c1,inactive
23,Cc1cc(N/N=C/c2ccc(O)cc2O)nc(N2CCOCC2)n1,inactive
24,CCOC(=O)N1CCC(c2cc(=O)n3[nH]c(-c4ccccc4)cc3n2)CC1,inactive

row,SMILES,"activity change, negative = inhibition"
1,CCn1cc(C(=O)O)c(=O)c2cc(F)c(N3CCN(C(=S)NC(=O)c4ccccc4Br)CC3)cc21,inactive
2,Cc1ccc(C)c2nc(Cl)c(C3NC(=O)c4ccccc4N3)cc12 (centres undefined),inactive
3,COc1ccc(/C=C\c2onc(C)c2S(=O)(=O)N2CCC(C(=O)NCc3ccco3)CC2)cc1,inactive
4,CC(C)CNC(=O)c1c(F)c(F)c(F)c(F)c1F,inactive
5,O=C(C[C@@H]1C[C@H]2c3cc(NC(=O)Nc4ccccc4)ccc3O[C@H]2[C@H](CO)O1)NCc1ccccc1,inactive
6,Cc1cccc(-n2c(=O)c3ccccc3n3c(=S)[nH]nc23)c1C,inactive
7,CCOc1ccc(S(=O)(=O)NCc2ccccc2Cl)cc1C(N)=O,inactive
8,COc1cccc(/C=C/c2onc(C)c2S(=O)(=O)N2CCC(C(=O)NC3CCCCCC3)CC2)c1,inactive
9,CCOc1ccccc1/C=C/c1onc(C)c1S(=O)(=O)N1CCC(C(=O)NC(C)C)CC1,inactive
10,Cc1onc(-c2c(F)cccc2Cl)c1C(=O)Nc1nnc(C(F)(F)F)s1,inactive
11,CCc1ccccc1NC(=S)N(Cc1ccc(C(=O)O)cc1)Cc1ccc(OC)c(OC)c1,inactive
12,Cc1scc(C(=O)N2CCN(c3ccc(Cl)cc3)CC2)c1C,inactive
13,Cc1[nH]c(-c2ccc(F)cc2)cc1C(=O)N1CCN(c2ccccc2)CC1,inactive
14,COc1ccc(NC(=O)CSc2nccn2C)cc1S(N)(=O)=O,inactive
15,CNC(=O)C1Cc2c(-c3ccccc3Oc3ccccc3)ccnc2O1 (centres undefined),inactive
16,COc1ccc(C2=NS(=O)(=O)N(C)C(C(=O)N3CCOCC3)=C2)cc1,inactive
17,O=C(CCn1cnc2ccccc21)N/N=C/c1ccc(O)cc1,inactive
18,Clc1ccc(-c2nc3ccc(Cl)cn3c2Cc2ccccc2)cc1,inactive
19,O=C(Nc1cc(S(=O)(=O)N2CCOCC2)ccc1N1CCOCC1)c1ccccc1Cl,inactive
20,O=S(=O)(Oc1ccccc1-c1ccccc1)c1ccccc1,inactive
21,Cc1ccc(C)c2sc(NC(=O)c3ccc(N4C(=O)CCC4=O)cc3)nc12,inactive
22,COc1ccc(C(=O)Nc2ccc3c(c2)C(=O)N(C)[C@@H]2CC[C@H](CC(=O)NCC4CC4)O[C@H]2CO3)cc1,inactive
23,COc1cccc(C(CNc2ccc(S(=O)(=O)N3CCN(C)CC3)cc2[N+](=O)[O-])N(C)C)c1 (centres undefined),inactive
24,COc1cc(OC)c(OC)cc1/C=C/c1ccnc2ccccc12,inactive
